Reference: patent US4853334A, “Method for the degradation of volatile chlorinated aliphatic hydrocarbons using pseudomonas fluorescens” (Microlife Technics, Inc., priority 1988, dated 1989)
“And” between values parts separate entries of the source, which are not always exact repeats. Equal entries are not always repeated.

Columns and labels:
[1] = system: Pseudomonas fluorescens NRRL-B-18296; experiment: Degradation of various chloroaliphatic carbon sources in minimal medium broth (Example 3); assay type: cell-based; settings: 100 ppm; mmo with 0.5% glucose, 0.005% yeast extract, 0.4% potassium nitrate; 10^6 bacteria/ml; 25° C., 24 hours
Experimental: (§1) In Examples 3 to 6, compounds of interest were quantitated using a Perkin-Elmer (model 8500) gas chromatograph equipped with an HS-6 headspace analyzer (Perkin-Elmer, Norwalk, CT). The instrument was fitted with a 6 foot stainless steel Sp2100 column (Supelco, Bellefonte, PA). Carrier gas flow rate (helium) was 20 ml/min. with an isothermal column temperature of 60° C. Injector and detector temperatures were 150° C. and 200° C. respectively.
(§2) All sample vials were equilibrated at 80° C. in the headspace analyzer for 10 minutes. Vial pressurization times of 30 seconds and injection times of 6 seconds were both controlled by programmed instrument time functions.
(§3) Calibrations were made by the external standard method using the internal data handling capabilities of the instrument. 100 ppm standards were prepared by dispensing 10 ul of the compounds into a serum bottle containing 100.0 g of chilled media analogous to experimental vials. Once the compound was completely dissolved, 2.00 g of the mixture was delivered by syringe to a headspace vial and sealed for subsequent headspace GC analysis.
(§4) Analysis of experimental vials was conducted by removing an aliquot by syringe and delivering 2.00 g to a headspace vial. Vials (6 ml) specified for use with the headspace analyzer were sealed using 19 mm TFE/silicone rubber septa and 20 mm crimp top seals (Alltech Associates, Deerfield, IL). A hand operated crimper was utilized.
The experiments were accomplished in 50 ml of minimal medium (mmo) that was modified. The modified minimal media (mmo) contained the sodium-potassium phosphate buffer at 0.06 M final concentration. The modified (mmo) was supplemented to a final concentration with 0.5% glucose, 0.005% yeast extract, 0.4% potassium nitrate and the volatile chloroaliphatic compound at 100 ppm. The flasks were inoculated with Pseudomonas fluorescens NRRL-B-18296 at 10^6 bacteria/ml. The remaining headspace in the vials was then filled with pure oxygen (approximately 60 ml) and sealed using 19 mm TFE/silicone rubber septa with 20mm crimp top seals. A hand operated crimper was utilized. The sealed vials were then shaken at 350 rpm on a New Brunswick gyrotary shaker (New Brunswick Scientific, Edison, NJ) at 25° C. for 24 hours.
Samples in triplicate (2.00 g) were removed after the 24 hour incubation. The samples were sealed in 6 ml vials and subjected to headspace analysis.
^1 values reported as percentage amounts of 100 ppm carbon source

[2] = system: Pseudomonas fluorescens NRRL-B-18296; experiment: Degradation of halogenated hydrocarbons by the strain (general statements); assay type: cell-based
[3] = system: Pseudomonas fluorescens NRRL-B-18296; experiment: Growth on volatile chlorinated carbon sources (minimal media, vapor phase); assay type: cell-based; set-up: key: +: Growth; -: no growth; settings: 72 hours at 25° C., minimal media (mmo), carbon source in vapor phase of sealed container
Experimental: ^1 Incubation was for 72 hours at 25° C. on minimal media
(mmo). Volatile carbon sources were supplied in the vapor phase of a
sealed container. +, Growth; -, no growth.

[4] = system: Pseudomonas fluorescens NRRL-B-18296; experiment: Degradation of a mixture of 1,2-dichloroethane and 1,2-dichloropropane, 0.1% glucose (Example 4); assay type: cell-based; settings: for % degradation: mixture, 100 ppm each, 0.1% glucose, 0.4% potassium nitrate, 10^6 bacteria/ml, 25° C., 168 hours
Experimental: as §1, §2, §3, §4
The potassium nitrate provides an assured oxygen source for this strain, since the degradations must be conducted under aerobic conditions.
^1 Experiments were accomplished in 100 ml minimal medium (mmo) supplemented with 0.1% glucose, 100 ppm of 1,2-dichloroethane, 100 ppm of 1,2-dichloropropane, and 0.4% potassium nitrate. The flasks were inoculated with Pseudomonas fluorescens NRRL-B-18296 at 10^6 bacteria/ml, sealed and shaken at 350 rpm on a New Brunswick gyrotary shaker (New Brunswick Scientific, Edison, NJ) at 25° C. for 168 hours. The shaking provides further oxygen to the medium.

[5] = system: Pseudomonas fluorescens NRRL-B-18296; experiment: Degradation of a mixture of 1,2-dichloroethane and 1,2-dichloropropane, 1.0% glucose (Example 5); assay type: cell-based; settings: glucose concentration increased to 1.0%
Experimental: as §1, §2, §3
Analysis of experimental vials was conducted by removing an aliquot by syringe and delivering 2.00 g to a headspace vial. Vials (6 ml) specified for use with the headspace analyzer were sealed using 19 mm TFE/silicone rubber septa and 20 mm crimp top seals (Alltech Associates, Deerfield, IL). […]

[6] = system: Pseudomonas fluorescens NRRL-B-18296; experiment: Induction of degradation of 1,2-dichloroethane using various carbon sources (Example 6); assay type: cell-based
Experimental: as §1, §2
as §3, with “analysis. […]” for “analysis.”
Individual flasks were supplemented with the following carbon sources at 2mM: ethanol, sodium acetate, glucose, sodium succinate, sodium benzoate, ortho cresol or meta cresol. […] After incubation for 24 hours, the vials were analyzed directly on the headspace gas chromatograph.

[7] = system: Acinetobacter sp.; settings: induced by prior growth on phenol; Nelson et al.; cited from earlier work
[8] = formed by anaerobic methanogens; Bouwer 1983; cited from earlier work

Structure (SMILES)	% degradation [1]	Degradation by the strain (in words) [2]	Growth on carbon source [3]	other results
CC(Cl)(Cl)Cl [1,1,1-trichloroethane]	0%	not degraded		
ClCC(Cl)Cl [1,1,2-trichloroethane]	23%	can be degraded	+	
ClCCCl [1,2-dichloroethane]	10%	can be degraded	+	Degradation upon extended degradation and supplementing with more glucose [4]: substantially completely degraded; % degradation [4]: 23.3% and 23%; degradative rate, with respect to time [5]: increased
CC(Cl)CCl (stereo not drawn) [1,2-dichloropropane]	3%	can be degraded	+	Degradation upon extended degradation and supplementing with more glucose [4]: substantially completely degraded; % degradation [4]: 32.1% and 32%; degradative rate, with respect to time [5]: increased
ClCCCCl [1,3-dichloropropane]	0%		-	
CC(C)(Cl)Cl [2,2-dichloropropane]	7%	can be degraded	+	
ClC(Cl)(Cl)Cl [Carbon tetrachloride]		not degraded		
CC(O)C(=O)O (stereo not drawn) [Sodium lactate]				Suitability as carbon source for the strain ([6]; 20 mM sodium lactate pre-culture, 25° C., 24 hours): effective carbon source
ClCCl [dichloromethane]		not degraded		
O=C[C@H](O)[C@@H](O)[C@H](O)[C@H](O)CO [glucose]				Induction of degradation of 1,2-dichloroethane ([6]; short time period of degradation): best carbon source to induce the degradation of 1,2-dichloroethane
ClC(Cl)=C(Cl)Cl [tetrachloroethylene]	0%		-	
ClC=C(Cl)Cl [trichloroethylene]	2%	can be degraded	+	aerobic metabolism (in words) [7]: aerobic metabolism
C=CCl [vinyl chloride]				toxicity relative to haloaliphatic hydrocarbons [8]: more toxic than the haloaliphatic hydrocarbons
